The test addresses Serine/threonine-protein kinase pim-2 (Homo sapiens, UniProt Q9P1W9). The experiment in a line: The phosphorylation of biotinylated-BAD (S112) peptide by full length recombinant Pim-1, Pim-2, or Pim-3 protein was detected with streptavidin:Allophycocyanin (APC) conjugate and a europium (Eu) labeled antibody directed against phosphorylated-BAD (S112). […] A reference compound was included on each assay plate in order to validate that plate; on.

Chain of Serine/threonine-protein kinase pim-2 (Q9P1W9 whole entry): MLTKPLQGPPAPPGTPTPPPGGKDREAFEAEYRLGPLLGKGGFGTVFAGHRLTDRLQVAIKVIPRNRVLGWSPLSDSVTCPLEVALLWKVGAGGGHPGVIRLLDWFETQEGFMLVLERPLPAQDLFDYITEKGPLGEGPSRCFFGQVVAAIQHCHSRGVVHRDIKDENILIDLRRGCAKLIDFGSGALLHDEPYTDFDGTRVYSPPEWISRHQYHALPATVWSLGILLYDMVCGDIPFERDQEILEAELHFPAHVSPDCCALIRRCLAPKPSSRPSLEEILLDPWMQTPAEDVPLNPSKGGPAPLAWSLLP

Take `CC(C)(C)Nc1nnc(-c2ccc3[nH]cc(C4=CCOCC4)c3c2)o1`: the half-maximal inhibitory concentration (IC50) is 738 nM.

The values above are taken from ChEMBL document CHEMBL3886684, “Azole compounds as PIM inhibitors” (2016).
